ChEMBL document CHEMBL1201862, “PubChem BioAssay data set” (2004)
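Dose response: 5 concentrations. Exposure: 48 h. Format: 96-well plates. Endpoint: linear interpolation; highest concentration if not reached. GI50 marks 50% less growth.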 Active and inactive are the calls of the source. Rule as the data show it: active = GI50 up to about 1.1 µM and inactive = higher.

Legend:
Experiment in all cases: growth of human tumour cells (NCI), 48 h
786-0 = test system: 786-0
K562 = test system: K562
U-251 = test system: U-251
HL-60 = test system: HL-60
PC-3 = test system: PC-3
OVCAR-3 = test system: OVCAR-3
ACHN = test system: ACHN
CAKI-1 = test system: CAKI-1
SN12C = test system: SN12C
SK-MEL-2 = test system: SK-MEL-2
RPMI-8226 = test system: RPMI-8226
HCT-15 = test system: HCT-15
COLO 205 = test system: COLO 205
NCI-H23 = test system: NCI-H23
SK-OV-3 = test system: SK-OV-3
HOP-92 = test system: HOP-92
LOX IMVI = test system: LOX IMVI
HOP-62 = test system: HOP-62
SNB-19 = test system: SNB-19
MOLT-4 = test system: MOLT-4

| Compound | GI50 (786-0) | GI50 (K562) | GI50 (U-251) | GI50 (HL-60) | GI50 (PC-3) | GI50 (OVCAR-3) | GI50 (ACHN) | GI50 (CAKI-1) | GI50 (SN12C) | GI50 (SK-MEL-2) | GI50 (RPMI-8226) | GI50 (HCT-15) [µM] | GI50 (COLO 205) | GI50 (NCI-H23) | GI50 (SK-OV-3) | GI50 (HOP-92) | GI50 (LOX IMVI) | GI50 (HOP-62) | GI50 (SNB-19) | GI50 (MOLT-4) |
| --- | --- | --- | --- | --- | --- | --- | --- | --- | --- | --- | --- | --- | --- | --- | --- | --- | --- | --- | --- | --- |
| CC(=O)c1ccc(Oc2c3ccccc3nc3ccccc23)cc1 | 3.4 µM (inactive) | 3.41 µM (inactive) | 11.6 µM (inactive) | 0.207 µM (active) | 6.89 µM (inactive) | 7.53 µM (inactive) | 4.15 µM (inactive) | 4.69 µM (inactive) | 5.08 µM (inactive) | 8.59 µM (inactive) | 2.77 µM (inactive) | 4.01 | 2.79 µM (inactive) | 22.5 µM (inactive) | 15.7 µM (inactive) | 12.4 µM (inactive) | 5.86 µM (inactive) | 14.4 µM (inactive) | 18.7 µM (inactive) | – |
| COc1ncnc2c(Cl)c(C(O)c3ccccc3)c(Cl)cc12 (stereo not given) | – | 14.9 µM (inactive) | 27.3 µM (inactive) | 27.5 µM (inactive) | 27.4 µM (inactive) | 43.8 µM (inactive) | 26.4 µM (inactive) | 34.7 µM (inactive) | 28.1 µM (inactive) | 33.6 µM (inactive) | 18.7 µM (inactive) | 24.6 | 29.4 µM (inactive) | 41.6 µM (inactive) | 19.5 µM (inactive) | 15.7 µM (inactive) | 53.3 µM (inactive) | 15.2 µM (inactive) | 26.6 µM (inactive) | 24 µM (inactive) |
| CCC1=NC(N/N=C/c2ccco2)=N/C1=C\c1ccccc1O | 39.7 µM (inactive) | 56.5 µM (inactive) | 56.4 µM (inactive) | 27.4 µM (inactive) | 31.2 µM (inactive) | – | 21.9 µM (inactive) | > 100 µM (inactive) | > 100 µM (inactive) | 25.9 µM (inactive) | 31.9 µM (inactive) | 12.6 | 44.3 µM (inactive) | 28.8 µM (inactive) | 47 µM (inactive) | 70 µM (inactive) | 35 µM (inactive) | 76.4 µM (inactive) | 47.9 µM (inactive) | 25.2 µM (inactive) |
| CCCCCCSCC/C(C)=N\OC | > 100 µM (inactive) | > 100 µM (inactive) | > 100 µM (inactive) | 45.3 µM (inactive) | > 100 µM (inactive) | > 100 µM (inactive) | > 100 µM (inactive) | > 100 µM (inactive) | > 100 µM (inactive) | > 100 µM (inactive) | > 100 µM (inactive) | > 100 | > 100 µM (inactive) | > 100 µM (inactive) | > 100 µM (inactive) | > 100 µM (inactive) | > 100 µM (inactive) | > 100 µM (inactive) | > 100 µM (inactive) | > 100 µM (inactive) |
| O=S(=O)(c1cc(Cl)ccc1Cl)N1CCN(c2cccc(Cl)c2)CC1 | > 100 µM (inactive) | 67 µM (inactive) | > 100 µM (inactive) | > 100 µM (inactive) | > 100 µM (inactive) | > 100 µM (inactive) | > 100 µM (inactive) | > 100 µM (inactive) | > 100 µM (inactive) | – | > 100 µM (inactive) | > 100 | – | > 100 µM (inactive) | – | > 100 µM (inactive) | > 100 µM (inactive) | > 100 µM (inactive) | > 100 µM (inactive) | > 100 µM (inactive) |
| Cc1ccc(/N=C2/C(c3ccccc3)=C(SC3=C(c4ccccc4)/C(=N/c4ccc(C)cc4)c4ccccc43)c3ccccc32)cc1 | 10.4 µM (inactive) | 32.4 µM (inactive) | 15.7 µM (inactive) | 7.87 µM (inactive) | 55 µM (inactive) | 27.5 µM (inactive) | 3.38 µM (inactive) | 15.2 µM (inactive) | 20.9 µM (inactive) | > 39.1 µM (inactive) | 84.7 µM (inactive) | 17.7 | > 100 µM (inactive) | 14 µM (inactive) | 15 µM (inactive) | 12.1 µM (inactive) | 67.6 µM (inactive) | 10 µM (inactive) | 6.31 µM (inactive) | > 87.7 µM (inactive) |
| CCOP(=O)(OCC)/C(C#N)=C/c1ccc(-c2ccc(F)cc2F)o1 | 13.9 µM (inactive) | 12.2 µM (inactive) | 14.8 µM (inactive) | 12.3 µM (inactive) | 10.8 µM (inactive) | 14.9 µM (inactive) | 13.3 µM (inactive) | 15.3 µM (inactive) | 15.8 µM (inactive) | 23.5 µM (inactive) | 18.4 µM (inactive) | 13.5 | 14.9 µM (inactive) | 14.5 µM (inactive) | 14 µM (inactive) | 15.2 µM (inactive) | 13.3 µM (inactive) | 19.2 µM (inactive) | 16.9 µM (inactive) | 10.6 µM (inactive) |
| O=[N+]([O-])c1ccc(-c2nc(/C=N/N3CCCCC3)cs2)o1 | > 100 µM (inactive) | 57.5 µM (inactive) | > 100 µM (inactive) | 20.1 µM (inactive) | > 100 µM (inactive) | 26.3 µM (inactive) | > 100 µM (inactive) | > 100 µM (inactive) | 16.2 µM (inactive) | > 100 µM (inactive) | 19.1 µM (inactive) | 32.6 | 30.2 µM (inactive) | 29.2 µM (inactive) | > 100 µM (inactive) | > 100 µM (inactive) | – | 53 µM (inactive) | > 100 µM (inactive) | 26.5 µM (inactive) |
| CCCCc1ccc(N2C(=O)c3cc([N+](=O)[O-])cnc3S2(=O)=O)cc1 | > 100 µM (inactive) | > 100 µM (inactive) | 31.8 µM (inactive) | – | > 100 µM (inactive) | > 100 µM (inactive) | > 100 µM (inactive) | > 100 µM (inactive) | > 100 µM (inactive) | 23.3 µM (inactive) | > 100 µM (inactive) | > 100 | > 100 µM (inactive) | > 100 µM (inactive) | > 100 µM (inactive) | 0.424 µM (active) | 61.7 µM (inactive) | > 100 µM (inactive) | 52.1 µM (inactive) | > 100 µM (inactive) |
| CCCN1C(=O)CC(C)N(Cc2ccccc2Cl)C1=S (stereo not given) | 36.4 µM (inactive) | – | 24 µM (inactive) | 37.4 µM (inactive) | 22.8 µM (inactive) | 26.1 µM (inactive) | 24.5 µM (inactive) | 36.9 µM (inactive) | 30.6 µM (inactive) | 21.7 µM (inactive) | 24.8 µM (inactive) | 35.2 | 16.9 µM (inactive) | 23.5 µM (inactive) | 31.9 µM (inactive) | 24.2 µM (inactive) | 22.3 µM (inactive) | 35.4 µM (inactive) | 46.1 µM (inactive) | 28.2 µM (inactive) |
| CC(=O)Oc1c(-c2ccccc2)sc2ccccc12 | 15.6 µM (inactive) | 13.9 µM (inactive) | 18 µM (inactive) | 18 µM (inactive) | 25.5 µM (inactive) | > 10 µM (inactive) | 15.6 µM (inactive) | 1.33 µM (inactive) | – | 13.3 µM (inactive) | 1.61 µM (inactive) | 16.6 | 15.6 µM (inactive) | 15.1 µM (inactive) | – | 15.1 µM (inactive) | 13.5 µM (inactive) | 22.3 µM (inactive) | 34.4 µM (inactive) | 14.7 µM (inactive) |
| CC1(C)CC(=O)c2c([nH]c(=S)c(C#N)c2-c2ccc(Br)cc2)C1 | 78.5 µM (inactive) | 43.4 µM (inactive) | 35.6 µM (inactive) | 43.9 µM (inactive) | 30.4 µM (inactive) | 30.7 µM (inactive) | 66.1 µM (inactive) | 20 µM (inactive) | 48.9 µM (inactive) | 24.9 µM (inactive) | – | 45.8 | > 10 µM (inactive) | 51.1 µM (inactive) | > 100 µM (inactive) | 17.3 µM (inactive) | 57.5 µM (inactive) | 41.7 µM (inactive) | 45.5 µM (inactive) | – |
| COC(=O)[C@]12CSC[C@H]1C[C@H](c1cccc3ccccc13)N2 | > 100 µM (inactive) | 35.1 µM (inactive) | 69.8 µM (inactive) | – | > 100 µM (inactive) | > 100 µM (inactive) | 39.4 µM (inactive) | > 100 µM (inactive) | > 100 µM (inactive) | > 100 µM (inactive) | 61.8 µM (inactive) | > 100 | > 100 µM (inactive) | 91.2 µM (inactive) | > 100 µM (inactive) | > 100 µM (inactive) | 94.6 µM (inactive) | > 100 µM (inactive) | > 100 µM (inactive) | 18.2 µM (inactive) |
| C[C@]12CCC(=O)C=C1CC[C@@H]1[C@@H]2CC[C@]2(C)C(=O)/C(=C/c3ccncc3)C[C@@H]12 | 15.1 µM (inactive) | 11.7 µM (inactive) | 12.4 µM (inactive) | 8.51 µM (inactive) | 12.4 µM (inactive) | 13 µM (inactive) | 14.8 µM (inactive) | 15.9 µM (inactive) | 16.7 µM (inactive) | 14.5 µM (inactive) | 8.99 µM (inactive) | 15.3 | 13.2 µM (inactive) | 18.3 µM (inactive) | 20 µM (inactive) | 19.1 µM (inactive) | 15.7 µM (inactive) | 14.6 µM (inactive) | 13.2 µM (inactive) | 16.4 µM (inactive) |
| Cc1occc1C(=S)Nc1ccc(Cl)c(C(=O)OCC(C)C)c1 | 16.7 µM (inactive) | 12.1 µM (inactive) | 17.6 µM (inactive) | 29.4 µM (inactive) | 16.1 µM (inactive) | 22.4 µM (inactive) | 17.9 µM (inactive) | 21.5 µM (inactive) | 16.8 µM (inactive) | 19.5 µM (inactive) | 19.4 µM (inactive) | 16.9 | 16.3 µM (inactive) | 17.1 µM (inactive) | 20.9 µM (inactive) | 17.4 µM (inactive) | 14.9 µM (inactive) | – | 17.1 µM (inactive) | 11.5 µM (inactive) |
